Data published in patent publication US20240148671A1, “METHODS FOR IMPROVING POULTRY HEALTH” (CORNELL UNIVERSITY, priority 2021, published 2024).

Test system: TNF-α
Experiment: Gene expression (RT-PCR), TNF-α
Format: in vivo, Gallus gallus
Settings: at hatch; b175, b210: compared with the 5% inulin control group; b192: comparator not stated; p<0.05
Description: The pure resveratrol and pterostilbene were individually diluted in 18 MΩ H2O. The intra-amniotic administration followed the methodology previously described. On the 17th day of embryonic development, the eggs with viable embryos (n=60) were randomly allocated into 6 groups (n=10) with a similar weight frequency distribution. For the intra-amniotic treatment, 1 mL of solution per egg was injected into the amniotic fluid (via candling) with the aid of a 21-gauge needle. […]
The RNA was isolated as described previously (RNeasy Mini Kit, Qiagen Inc., Valencia, CA, USA), and 30 mg of the duodenal tissue or liver tissue (n =8) was used to extract the total RNA. […] Finally, the RNA was eluted in 50 μL of RNase-free water and quantified by absorbance at 260 and 280 nm.
RT-PCR was conducted as described. […] The cDNA content was assessed by absorbance at 260 and 280 nm, with an extinction coefficient of 33 (single-stranded DNA). Genomic DNA contamination was evaluated via a real-time RT-PCR assay for the reference gene samples [17,18,30]. […]
The procedures were performed as previously published. […] The optimal MgCl2 concentration achieved, for each reaction, an amplification plot (lowest cycle product, Cp), the uppermost fluorescence intensity and the steepest amplification slope. […]

**Q.** With `Oc1ccc(C=Cc2cc(O)cc(O)c2)cc1` [5% Resveratrol, Resveratrol] as the compound, how does the TNF-α gene expression read?
**A.** Its TNF-α gene expression is “downregulated”.
